Here are results for 19 compounds from patent US10961234B2, “Oxazole derivatives for use in the treatment of cancer” (LIFEARC, priority 2016, dated 2021).

A word on the IC50: it is the point on the concentration scale where inhibition reaches its midpoint. The low end stands for inhibition by little substance, the high end for a need for much substance. What is called EC50 is the concentration at which the effect is half-maximal. Low readings indicate a more potent agent, high ones a less potent agent.

Assay [1] addresses T1, WT full length PAICS (Homo sapiens, UniProt P22234).
T1 construct: 5 μl WT full length PAICS (final assay concentration, fac, 2.5 nM) in basic buffer
T1 sequence (P22234 1-425): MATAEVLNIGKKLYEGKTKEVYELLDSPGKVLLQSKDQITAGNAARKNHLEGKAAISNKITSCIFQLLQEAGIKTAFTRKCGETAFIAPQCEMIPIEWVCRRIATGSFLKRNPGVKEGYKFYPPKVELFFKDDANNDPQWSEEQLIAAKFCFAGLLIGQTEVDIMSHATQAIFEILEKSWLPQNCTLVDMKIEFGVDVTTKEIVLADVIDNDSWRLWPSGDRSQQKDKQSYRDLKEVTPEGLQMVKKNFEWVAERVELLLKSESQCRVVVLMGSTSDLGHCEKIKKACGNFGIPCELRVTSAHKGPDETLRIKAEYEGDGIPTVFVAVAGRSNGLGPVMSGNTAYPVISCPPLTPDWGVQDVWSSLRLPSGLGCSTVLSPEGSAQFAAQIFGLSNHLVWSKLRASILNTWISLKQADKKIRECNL
The assay can be described thus: Biochemical assay to measure PAICS activity (Transcreener ADP2 FI, SAICAR synthetase reaction). To be noted: PAICS 2.5 nM, 30 mins pre-incubation, ADP detection by fluorescence intensity. The source says:
The biochemical assay was used to measure PAICS SAICAR synthetase-mediated conversion of CAIR, aspartic acid and ATP to SAICAR, ADP and inorganic phosphate (PI), post-AIR/CAIR equilibration (see FIG. 3). This was achieved by detecting the ADP generated during the reaction, using Bellbrook Lab's Transcreener ADP^2 FI assay. An increase in the fluorescence intensity is directly proportional to the amount of PAICS activity.
The Transcreener ADP^2 FI assay is a homogeneous competitive displacement fluorescence intensity assay which uses direct immunodetection of ADP. Displacement of the tracer by ADP causes an increase in the fluorescence at excitation 590 nm and emission 617 nm (FIG. 3).
5 μl WT full length PAICS (final assay concentration, fac, 2.5 nM) in basic buffer, added to black, non-binding, 384-well plates (Corning #3575), columns 1 to 22.5 μl basic buffer was added to columns 23+24 (negative control). PAICS stock at 31.9 μM from the PI's lab (Steve Firestine). Basic buffer contained 50 mM Tris-HCl pH8 and 0.5 mM EDTA, fac.
1 μl compound in 100% DMSO added per well, or 1 μl 100% DMSO to positive controls (columns 1+2) and negative controls (columns 23+24). Final assay top concentration of compound either 1 mM or 30 μM, serially diluted with half-log dilutions across the plate in duplicate (one 10-point concentration response curve across wells 3 to 12, another across 13 to 22). Compounds pre-incubated with PAICS enzyme for 30 mins at RT.
2 μl CAIR added (fac 10 μM) in basic buffer plus 25 mM MgCl2 and 50 mM KHCO3 fac to all wells. CAIR stock 50 mM from Steve Firestine's lab. 1 hr RT incubation for AIR-CAIR equilibration. NB: ˜50% CAIR is decarboxylated during equilibration therefore 5 μM remains for the synthetase reaction.
2 μl ATP/aspartic acid added (fac 30 μM/180 μM) in reaction buffer to all wells. 30 mins RT incubation for appropriate level of ATP turnover. Reaction buffer contained basic buffer plus 10 mM DTT, 0.01% BSA and 0.01% Brij 35, fac.
10 μl ADP detection reagent added to all wells (as per instructions, Transcreener ADP^2 FI kit, BellBrook Labs #3013-10K). Incubation for 1 h at RT to allow antibody equilibration. Fluorescence intensity determined using a Tecan Safire2 (excitation at 590 nm, emission at 617 nm).

In assay [2] the test system is LM2 and MDA-MB-231 breast cancer cell lines. The assay can be described thus: PAICS 2D cell proliferation assay. The format is cell-based. To be noted: Homo sapiens; 72 hours incubation; cell line (LM2 or MDA-MB-231) not given. As to the method: Frozen cryovial stocks of LM2 and MDA-MB-231 breast cancer cell lines were thawed and cultured in 4.5 g/L glucose DMEM (31966-047, Invitrogen) supplemented with 10% Fetal Bovine Serum (10500-064, Invitrogen) until confluent in a T175 flask. Cells were incubated at 37° C. with 5% CO2 in a humidified incubator.
Cells were collected from T175 flasks by washing with PBS (10010-056, Invitrogen) and dissociated using Accutase (A6964, Sigma Aldrich). This was followed by centrifuging (1200 rpm, 5 min) and resuspending the cells in 10 ml of media containing 1% penicillin/streptomycin (15140-122, Invitrogen). Cells were counted by trypan blue exclusion method using an automated cell counter (Cellometer) and diluted to a concentration of 40,000/ml. 1000 cells were then seeded into 384-well white-walled plates (Corning, 3707) in a volume of 25 μl. Plates were incubated overnight at 37° C. with 5% CO2.
After 24 hours, PAICS compounds were added onto the assay plates using an HP D300 Digital Dispenser (Hewlett Packard). 10 mM stocks were used and dispensed as a 10 point concentration response curve (CRC) ½ log dilution series with a final top concentration of 100 μM. Controls were added onto each plate: positive controls included Staurosporine CRC (100 μM stock dispensed as a 10 point CRC ½ log dilution series with a final top concentration of 1 μM) and PAICS compound MRT00211919 (10 mM stock dispensed as a 10 point CRC ½ log dilution series with a final top concentration of 100 μM); a high control of Staurosporine (0.1 μM (LM2), 0.316 μM (MDA-MB-231) FAC) and a low control of media containing 1% DMSO. A final concentration of 1% DMSO was then added across the plates for normalisation. Following compound addition, assay plates were incubated for 72 hours at 37° C. with 5% CO2.
After 72 h incubation, dead and viable cells were measured in each assay plate. Cytotoxicity was assessed through fluorescent DNA staining using the CellTox™ Green Cytotoxicity Assay kit (G8743, Promega) following the manufacturer's multiplexing protocol. Impaired cell membrane integrity results in the access of dye to stain DNA allowing quantification of dead cells. Cell viability was determined following ATP quantification using the CellTiter-Glo® Luminescent Cell Viability Assay kit (G7572, Promega) following the manufacturer's protocol. ATP released from lysed cells allowed for the generation of a signal proportional to the number of cells present in the well. All endpoint reads were performed using the PheraSTAR Plus (BMG Labtech). Data is expressed as % viable cells and % dead cells against controls (mean±SEM of duplicate curves).

Molecules are shown by their SMILES.

As for `CCNCCn1cc(-c2ccc(Cl)c(NC(=O)c3coc(N)n3)c2)cn1` [Example 56, 2-Amino-N-(2-chloro-5-(1-(2-(ethylamino)ethyl)-1H-pyrazol-4-yl)phenyl)oxazole-4-carboxamide], the IC50 in assay [1] was 10 to 25 nM. In assay [2], this compound yielded an EC50 of 100 to 250 nM.

Compound `Nc1nc(C(=O)Nc2cc(-c3ccc(OC4CCNC4)nc3)ccc2Cl)co1` (stereo not shown) [Example 68, 2-Amino-N-(2-chloro-5-(6-(pyrrolidin-3-yloxy)pyridin-3-yl)phenyl)oxazole-4-carboxamide] displayed an IC50 in assay [1] of 10 to 25 nM. The same compound returned an EC50 in assay [2] of 250 to 500 nM. The corresponding values for `CN(C)CCCC(=O)N1CCC(n2cc(-c3ccc(Cl)c(NC(=O)c4coc(N)n4)c3)cn2)CC1` [Example 64, 2-Amino-N-[2-chloro-5-(1-{1-[4-(dimethylamino)butanoyl]piperidin-4-yl}-1H-pyrazol-4-yl)phenyl]-1,3-oxazole-4-carboxamide] are over 100 nM and 250 to 500 nM. Turning to `CN(C)C1CCN(Cc2csc(-c3ccc(Cl)c(NC(=O)c4coc(N)n4)c3)n2)CC1` [Example 97, 2-Amino-N-[2-chloro-5-(4-{[4-(dimethylamino)piperidin-1-yl]methyl}-1,3-thiazol-2-yl)phenyl]-1,3-oxazole-4-carboxamide], the EC50 in assay [2] is 100 to 250 nM. For the compound `CN1CCC(NCc2ccc(-c3ccc(Cl)c(NC(=O)c4coc(N)n4)c3)cn2)CC1` [Example 78, 2-Amino-N-[2-chloro-5-(6-{[(1-methylpiperidin-4-yl)amino]methyl}pyridin-3-yl)phenyl]-1,3-oxazole-4-carboxamide], the IC50 in assay [1] was in the range of 10 to 25 nM. The compound also showed an EC50 in assay [2] of 100 to 250 nM. The like results for `Nc1nc(C(=O)Nc2cc(-c3ccc(CN4CCNCC4)cc3)ccc2Cl)co1` [Example 38, 2-Amino-N-[4-chloro-4′-(piperazin-1-ylmethyl)biphenyl-3-yl]-1,3-oxazole-4-carboxamide] were, in that order, 10 to 25 nM and 250 to 500 nM. On to `Nc1nc(C(=O)Nc2cc(-c3cnn(C4CCNCC4)c3)ccc2Cl)co1` [Example 40], for which the IC50 in assay [1] was 25 to 100 nM. In assay [2], this compound gave an EC50 of 250 to 500 nM. For the compound `CN(C)CCCOc1ccc(-c2ccc(Cl)c(NC(=O)c3coc(N)n3)c2)nc1` [Example 93, 2-Amino-N-(2-chloro-5-{5-[3-(dimethylamino)propoxy]pyridin-2-yl}phenyl)-1,3-oxazole-4-carboxamide], the IC50 in assay [1] lay in the range of 25 to 100 nM. Besides, in assay [2], the EC50 was 250 to 500 nM. The like results for `Nc1nc(C(=O)Nc2cc(-c3cnn(C4CCCNC4)c3)ccc2Cl)co1` (stereo not shown) [Example 42, 2-Amino-N-{2-chloro-5-[1-(piperidin-3-yl)-1H-pyrazol-4-yl]phenyl}-1,3-oxazole-4-carboxamide] were, in that order, over 100 nM and 100 to 250 nM.

`Nc1nc(C(=O)Nc2cc(-c3ccc(OC4CCNCC4)nc3)ccc2Cl)co1` [Example 84, 2-Amino-N-{2-chloro-5-[6-(piperidin-4-yloxy)pyridin-3-yl]phenyl}-1,3-oxazole-4-carboxamide] showed an IC50 in assay [1] of 10 to 25 nM. In assay [2], this compound displayed an EC50 of 250 to 500 nM.

In assay [2], `CSc1ccc(-c2cnc(OCCCN(C)C)s2)cc1NC(=O)c1coc(N)n1` [Example 99, 2-Amino-N-[5-{2-[3-(dimethylamino)propoxy]-1,3-thiazol-5-yl}-2-(methylsulfanyl)phenyl]-1,3-oxazole-4-carboxamide] came in with an EC50 of 100 to 250 nM.

Take `Nc1nc(C(=O)Nc2cc(-c3ccc(N4CCNCC4)cc3)ccc2Cl)co1` [Example 39, 2-Amino-N-[4-chloro-4′-(piperazin-1-yl)biphenyl-3-yl]-1,3-oxazole-4-carboxamide]: the IC50 in assay [1] was over 100 nM. The EC50 in assay [2] lay in the range of 250 to 500 nM.

In the case of `CN1CCN(CCCn2cc(-c3ccc(Cl)c(NC(=O)c4coc(N)n4)c3)cn2)CC1` [Example 52, 2-Amino-N-(2-chloro-5-(1-(3-(4-methylpiperazin-1-yl)propyl)-1H-pyrazol-4-yl)phenyl)oxazole-4-carboxamide], in assay [1], the IC50 was in the range of 10 to 25 nM. Further, in assay [2], the EC50 is 100 to 250 nM. The corresponding values for `CNCCCn1cc(-c2ccc(Cl)c(NC(=O)c3coc(N)n3)c2)cn1` [Example 49, 2-Amino-N-(2-chloro-5-(1-(3-(methylamino)propyl)-1H-pyrazol-4-yl)phenyl)oxazole-4-carboxamide] are under 10 nM and under 100 nM. In turn, `CNC1CCCN(Cc2csc(-c3ccc(Cl)c(NC(=O)c4coc(N)n4)c3)n2)C1` (stereo not shown) [Example 96, 2-Amino-N-[2-chloro-5-(4-{[3-(methylamino)piperidin-1-yl]methyl}-1,3-thiazol-2-yl)phenyl]-1,3-oxazole-4-carboxamide] registered an EC50 in assay [2] of under 100 nM.

Take `CCN(CC)CCCOc1ncc(-c2ccc(Cl)c(NC(=O)c3coc(N)n3)c2)s1` [Example 98, 2-Amino-N-(2-chloro-5-{2-[3-(diethylamino)propoxy]-1,3-thiazol-5-yl}phenyl)-1,3-oxazole-4-carboxamide]: the EC50 in assay [2] was under 100 nM. The same measure, in the same setting: the value for `CN(C)CCCc1ncc(-c2ccc(Cl)c(NC(=O)c3coc(N)n3)c2)s1` [Example 85, 2-Amino-N-(2-chloro-5-{2-[3-(dimethylamino)propyl]-1,3-thiazol-5-yl}phenyl)-1,3-oxazole-4-carboxamide] was under 100 nM.

The compound `CN1CCN(c2ncc(-c3ccc(Cl)c(NC(=O)c4coc(N)n4)c3)s2)CC1` [Example 101, 2-Amino-N-{2-chloro-5-[2-(4-methylpiperazin-1-yl)-1,3-thiazol-5-yl]phenyl}-1,3-oxazole-4-carboxamide] yielded an EC50 in assay [2] of 100 to 250 nM.

With `CSc1ccc(-c2nc(CN3CCNCC3)cs2)cc1NC(=O)c1coc(N)n1` [Example 100, 2-Amino-N-{2-(methylsulfanyl)-5-[4-(piperazin-1-ylmethyl)-1,3-thiazol-2-yl]phenyl}-1,3-oxazole-4-carboxamide], the EC50 in assay [2] was under 100 nM.
